From article PMC7127386 (Antiviral Research, 2020)
“Also recorded” adds a separate entry of the source. Where two headings read alike, the source gives them in different places.

How the values were obtained:
SARS-CoV-2 virus [1] = format: cell-based
SARS-CoV-2 virus [2] = format: cell-based; remark: listed apart in the source
SARS-CoV-2 virus [3] = format: cell-based; conditions: read-out: Reduction in viral RNA copy (EC50)
SARS-CoV-2 virus [4] = format: cell-based; conditions: read-out: Reduction in infectious virus (EC50)

| Structure (SMILES) | CPE inhibition (lowest concentration of the compound with 100% CPE inhibition) (SARS-CoV-2 virus [1]) [µM] | Antiviral effect against SARS-CoV-2 virus in vitro (in words) (SARS-CoV-2 virus [2]) | also measured |
| --- | --- | --- | --- |
| CN[C@H]1C(=O)N[C@@H]2Cc3ccc(cc3)Oc3cc4cc(c3O[C@@H]3O[C@H](C(=O)O)[C@@H](O)[C@H](O)[C@H]3NC(=O)CCCCCCCCC(C)C)Oc3ccc(cc3Cl)[C@@H](O)[C@@H]3NC(=O)[C@H](NC(=O)[C@@H]4NC(=O)[C@@H](NC2=O)c2cc(cc(O)c2Cl)Oc2cc1ccc2O)c1ccc(O)c(c1)-c1c(O[C@H]2O[C@H](CO)[C@@H](O)[C@H](O)[C@@H]2O)cc(O)cc1[C@@H](C(=O)NCCCN(C)C)NC3=O.Cl [Dalbavancin hydrochloride] | >100 | – | – |
| NC(=O)c1nc(F)c[nH]c1=O [Favipiravir] | – | no apparent antiviral effect; also recorded: did not inhibit viral replication | Inhibition of SARS-CoV-2 (in words) (SARS-CoV-2 virus [2]): no inhibition |
| Nc1nc(F)nc2c1ncn2[C@@H]1O[C@H](COP(=O)(O)O)[C@@H](O)[C@@H]1O [Fludarabine phosphate] | – | did not inhibit viral replication | – |
| Nc1ncnc2c([C@@H]3N[C@H](CO)[C@@H](O)[C@H]3O)c[nH]c12 [Galidesivir] | – | did not inhibit viral replication | – |
| CN[C@H](CC(C)C)C(=O)N[C@H]1C(=O)N[C@@H](CC(N)=O)C(=O)N[C@H]2C(=O)N[C@H]3C(=O)N[C@H](C(=O)N[C@H](C(=O)O)c4cc(O)cc(O)c4-c4cc3ccc4O)[C@H](O[C@H]3C[C@](C)(N)[C@@H](O)[C@H](C)O3)c3ccc(c(Cl)c3)Oc3cc2cc(c3O[C@@H]2O[C@H](CO)[C@@H](O)[C@H](O)[C@H]2O[C@H]2C[C@](C)(NCc3ccc(-c4ccc(Cl)cc4)cc3)[C@@H](O)[C@H](C)O2)Oc2ccc(cc2Cl)[C@H]1O.O=P(O)(O)O.O=P(O)(O)O [Oritavancin diphosphate] | >100 | – | – |
| CCC(CC)O[C@@H]1C=C(C(=O)O)C[C@H](N)[C@H]1NC(C)=O [Oseltamivir carboxylate] | >100 | no apparent antiviral effect | EC50 (SARS-CoV-2 virus [3]): > 100 µM; EC50 (SARS-CoV-2 virus [4]): > 100 µM; CC50 (Vero E6 cells): > 100 µM |
| [N-]=[N+]=N[C@]1(CO)O[C@@H](n2ccc(N)nc2=O)[C@H](O)[C@@H]1O [R-1479] | >100 | did not inhibit viral replication | CC50 (Vero E6 cells): > 100 µM |
| NC(=O)c1ncn([C@@H]2O[C@H](CO)[C@@H](O)[C@H]2O)n1 [Ribavirin] | – | no apparent antiviral effect; also recorded: did not inhibit viral replication | Inhibition of SARS-CoV-2 (in words) (SARS-CoV-2 virus [2]): no inhibition |
| C[C@H](Cn1cnc2c(N)ncnc21)OCP(=O)(O)O [Tenofovor] | – | did not inhibit viral replication | – |
